{"source": "patent US20090093509A1", "about": "“Methods and Compositions for the Treatment of Pruritus” (priority 2007, published 2009)", "test": "pH of aqueous solution", "format": "physicochemical", "procedure": "The pH of the formulations of the invention are greater than 3 and less than 7. For example, the pH can be 3-7, 3-6, 4-7, 4-6, or 4-5. The pH of the solution and the measured pH of the topical composition may not be the same. For the purposes of this specification, either pH may be relevant but it is preferred that the pH is defined as that in the aqueous phase and not in the final cream. The pH of a 0.1% w/v aqueous solution of nalmefene hydrochloride is 6.13 at 22.5° C.: the corresponding values for 1% and 5% solutions are 5.76 and 4.66.", "note": "Structures can show the parent of a compound that is named as a salt.", "data": [{"compound": "C=C1CC[C@@]2(O)[C@H]3Cc4ccc(O)c5c4[C@@]2(CCN3CC2CC2)[C@H]1O5", "note": "[nalmefene hydrochloride, 6-methylene-6-desoxy-N-cyclopropylmethyl-14-hydroxydihydronormorphine]", "values": [{"measurement": "pH of aqueous solution", "setting": "0.1% w/v aqueous solution, 22.5° C.", "value": 6.13}, {"measurement": "pH of aqueous solution", "setting": "1% solution", "value": 5.76}, {"measurement": "pH of aqueous solution", "setting": "5% solution", "value": 4.66}]}]}
